pIC50: −log10 of the molar value.
Assays:
Format in all cases: cell-based
human TLR8 = biological target: T1, human TLR8 (Homo sapiens, UniProt Q9NR97); assay: TLR8 inhibition reporter assay (HEK-Blue cells, SEAP reporter, R848 stimulation); details: HEK-Blue cells overexpressing human TLR8, SEAP reporter, R848 15.9 μM
T1 construct: host or cells: HEK-Blue cells
T1 sequence (Q9NR97 27-1041): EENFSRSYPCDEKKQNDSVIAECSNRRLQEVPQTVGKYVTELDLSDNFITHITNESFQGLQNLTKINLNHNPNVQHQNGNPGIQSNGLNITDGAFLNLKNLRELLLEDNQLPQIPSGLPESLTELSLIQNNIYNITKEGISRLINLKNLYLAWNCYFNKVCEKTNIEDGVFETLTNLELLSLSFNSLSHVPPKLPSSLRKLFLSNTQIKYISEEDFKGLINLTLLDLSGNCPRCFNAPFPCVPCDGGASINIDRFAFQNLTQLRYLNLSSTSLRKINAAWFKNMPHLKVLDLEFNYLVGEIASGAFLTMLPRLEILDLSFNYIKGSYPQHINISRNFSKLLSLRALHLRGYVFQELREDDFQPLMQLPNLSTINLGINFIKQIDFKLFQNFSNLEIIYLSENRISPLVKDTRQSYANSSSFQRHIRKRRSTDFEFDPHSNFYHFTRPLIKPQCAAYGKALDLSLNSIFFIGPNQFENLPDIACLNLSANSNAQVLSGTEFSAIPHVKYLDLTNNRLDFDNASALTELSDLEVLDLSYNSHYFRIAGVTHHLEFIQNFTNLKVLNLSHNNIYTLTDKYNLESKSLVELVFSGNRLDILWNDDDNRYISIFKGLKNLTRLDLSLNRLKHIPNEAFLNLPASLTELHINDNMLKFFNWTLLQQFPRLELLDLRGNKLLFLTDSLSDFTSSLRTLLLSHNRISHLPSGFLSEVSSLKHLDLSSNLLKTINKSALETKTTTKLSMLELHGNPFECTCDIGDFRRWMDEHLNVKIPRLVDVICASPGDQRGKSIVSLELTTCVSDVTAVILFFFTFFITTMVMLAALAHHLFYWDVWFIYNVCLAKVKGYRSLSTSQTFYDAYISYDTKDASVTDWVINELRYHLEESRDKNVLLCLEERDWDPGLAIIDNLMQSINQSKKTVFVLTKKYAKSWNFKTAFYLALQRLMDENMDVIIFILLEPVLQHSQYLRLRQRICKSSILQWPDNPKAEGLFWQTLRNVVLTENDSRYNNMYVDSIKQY
Procedure, shortened: (§1)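 HEK-Blue cells with NF-κB/AP-1-driven SEAP reporter, pre-treated 30 min at room temperature with compound (0.05 nM-50 μM). Stimulants: gardiquimod 7.5 μM (TLR7), R848 15.9 μM (TLR8) or ODN2006 5 nM (TLR9). SEAP measured after 22 h at 37° C.; percent inhibition versus agonist-plus-DMSO and known-inhibitor wells.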

human TLR9 = biological target: T2, human TLR9 (Homo sapiens, UniProt Q9NR96); assay: TLR9 inhibition reporter assay (HEK-Blue cells, SEAP reporter, ODN2006 stimulation); details: HEK-Blue cells overexpressing human TLR9, SEAP reporter, ODN2006 5 nM
T2 construct: host or cells: HEK-Blue cells
T2 sequence (Q9NR96 26-1032): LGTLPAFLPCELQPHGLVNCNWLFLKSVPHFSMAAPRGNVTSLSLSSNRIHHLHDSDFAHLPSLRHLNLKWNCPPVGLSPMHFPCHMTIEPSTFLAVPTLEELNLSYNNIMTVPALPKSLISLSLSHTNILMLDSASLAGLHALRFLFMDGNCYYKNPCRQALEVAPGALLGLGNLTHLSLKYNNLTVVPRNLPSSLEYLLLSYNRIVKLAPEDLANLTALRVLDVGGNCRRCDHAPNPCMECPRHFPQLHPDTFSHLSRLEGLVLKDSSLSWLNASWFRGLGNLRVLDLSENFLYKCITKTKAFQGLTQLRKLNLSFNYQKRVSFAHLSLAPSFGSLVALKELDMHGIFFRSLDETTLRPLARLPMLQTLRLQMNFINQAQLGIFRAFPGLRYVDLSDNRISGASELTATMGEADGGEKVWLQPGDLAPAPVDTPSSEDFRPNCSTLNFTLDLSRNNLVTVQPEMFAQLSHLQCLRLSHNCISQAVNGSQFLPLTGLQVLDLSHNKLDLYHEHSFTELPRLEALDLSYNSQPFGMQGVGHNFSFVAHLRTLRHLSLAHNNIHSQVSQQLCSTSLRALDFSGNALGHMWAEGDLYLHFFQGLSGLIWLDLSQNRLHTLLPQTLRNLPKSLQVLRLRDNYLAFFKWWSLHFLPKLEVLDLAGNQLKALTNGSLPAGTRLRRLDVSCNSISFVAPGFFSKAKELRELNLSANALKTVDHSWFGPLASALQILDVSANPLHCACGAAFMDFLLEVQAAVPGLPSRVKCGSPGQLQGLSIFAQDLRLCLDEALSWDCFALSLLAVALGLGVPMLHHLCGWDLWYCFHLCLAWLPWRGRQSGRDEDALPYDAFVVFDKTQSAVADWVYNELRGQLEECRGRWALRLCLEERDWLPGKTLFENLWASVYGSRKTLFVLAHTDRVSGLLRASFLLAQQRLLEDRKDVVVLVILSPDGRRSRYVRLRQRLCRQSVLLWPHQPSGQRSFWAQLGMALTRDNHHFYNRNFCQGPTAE
Procedure, shortened: as §1

human TLR7 = biological target: T3, human TLR7 (Homo sapiens, UniProt Q9NYK1); assay: TLR7 inhibition reporter assay (HEK-Blue cells, SEAP reporter, gardiquimod stimulation); details: HEK-Blue cells overexpressing human TLR7, SEAP reporter, gardiquimod 7.5 μM
T3 construct: host or cells: HEK-Blue cells
T3 sequence (Q9NYK1 27-1049): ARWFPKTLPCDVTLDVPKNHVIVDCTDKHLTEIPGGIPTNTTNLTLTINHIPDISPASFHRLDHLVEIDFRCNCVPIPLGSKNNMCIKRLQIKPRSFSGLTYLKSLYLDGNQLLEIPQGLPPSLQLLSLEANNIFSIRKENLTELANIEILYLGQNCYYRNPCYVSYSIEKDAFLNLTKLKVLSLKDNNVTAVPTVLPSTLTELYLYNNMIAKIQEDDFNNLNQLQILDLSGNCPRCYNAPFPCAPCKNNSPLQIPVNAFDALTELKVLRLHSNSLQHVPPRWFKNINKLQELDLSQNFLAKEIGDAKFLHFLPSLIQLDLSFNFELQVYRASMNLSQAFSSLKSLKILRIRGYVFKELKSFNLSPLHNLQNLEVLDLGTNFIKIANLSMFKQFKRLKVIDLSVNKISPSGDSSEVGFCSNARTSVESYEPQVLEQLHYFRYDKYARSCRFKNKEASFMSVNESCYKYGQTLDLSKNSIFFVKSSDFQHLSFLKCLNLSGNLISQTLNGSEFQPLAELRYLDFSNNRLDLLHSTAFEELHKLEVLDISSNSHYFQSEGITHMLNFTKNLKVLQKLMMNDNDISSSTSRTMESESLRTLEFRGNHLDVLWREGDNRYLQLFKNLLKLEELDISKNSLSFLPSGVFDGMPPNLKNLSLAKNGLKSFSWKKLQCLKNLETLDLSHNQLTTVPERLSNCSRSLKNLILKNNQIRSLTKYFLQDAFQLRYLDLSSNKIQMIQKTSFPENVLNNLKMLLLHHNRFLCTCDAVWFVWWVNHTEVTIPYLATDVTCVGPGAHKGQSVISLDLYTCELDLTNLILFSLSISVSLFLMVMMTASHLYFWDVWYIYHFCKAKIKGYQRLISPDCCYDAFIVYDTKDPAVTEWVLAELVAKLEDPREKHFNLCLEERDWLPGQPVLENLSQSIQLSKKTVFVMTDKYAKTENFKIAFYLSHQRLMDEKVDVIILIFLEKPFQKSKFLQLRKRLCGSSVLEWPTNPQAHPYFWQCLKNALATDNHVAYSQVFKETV
Procedure, shortened: as §1

Row | pIC50 (human TLR8) | pIC50 (human TLR9) | pIC50 (human TLR7) | SMILES
1 | 6.66 | 4.54 | 7.59 | COc1cc(-c2[nH]c3ccc(C4CCC(N5CC(F)(F)C5)CC4)cc3c2C(C)C)cn2ncnc12 (stereo not drawn) [Example 19]
2 | 8.92 | 5.62 | 9.39 | COc1cc(-c2[nH]c3ccc(C4CCC(N5CC(F)C5)CC4)cc3c2C(C)C)cn2ncnc12 (stereo not drawn) [Example 21]
3 | 8.04 | 5.55 | 8.70 | COc1cc(-c2[nH]c3ccc(C4CCC(N5CC(F)C5)CC4)cc3c2C(C)C)cn2ncnc12 (stereo not drawn) [Example 23]
4 | 7.68 | 4.60 | 8.15 | Cc1c(-c2[nH]c3ccc(C4CCC(N5CC(F)(F)C5)CC4)cc3c2C(C)C)cn2ncnc2c1C (stereo not drawn) [Example 24]
5 | 6.74 | < 4.30 | 7.31 | Cc1c(-c2[nH]c3ccc(C4CCC(N5CC(F)(F)C5)CC4)cc3c2C(C)C)cn2ncnc2c1C (stereo not drawn) [Example 25]
6 | 9.59 | 6.48 | 9.77 | COc1cc(-c2[nH]c3ccc(C4CCC(N5CC[C@@H](N(C)C)C5)CC4)cc3c2C(C)C)cn2ncnc12 (stereo partly drawn) [Example 28]
7 | 8.72 | 6.04 | 9.59 | COc1cc(-c2[nH]c3ccc(C4CCC(N5CCC[C@H]5C(N)=O)CC4)cc3c2C(C)C)cn2ncnc12 (stereo partly drawn) [Example 29]
8 | 8.30 | 6.08 | 8.52 | COc1cc(-c2[nH]c3ccc(C4CCC(N5CC[C@@H](N(C)C)C5)CC4)cc3c2C(C)C)cn2ncnc12 (stereo partly drawn) [Example 30]
9 | 8.21 | 5.68 | 9.00 | COc1cc(-c2[nH]c3ccc(C4CCC(N5CCC[C@H]5C(N)=O)CC4)cc3c2C(C)C)cn2ncnc12 (stereo partly drawn) [Example 31]
10 | 9.80 | 6.77 | 9.85 | COc1cc(-c2[nH]c3ccc(C4CCC(N5CC[C@H](N(C)C)C5)CC4)cc3c2C(C)C)cn2ncnc12 (stereo partly drawn) [Example 32]
11 | 8.47 | 6.31 | 8.70 | COc1cc(-c2[nH]c3ccc(C4CCC(N5CC[C@H](N(C)C)C5)CC4)cc3c2C(C)C)cn2ncnc12 (stereo partly drawn) [Example 33]
12 | 7.64 | 4.69 | 8.30 | COc1cc(-c2[nH]c3ccc(C4CCC(N5CCCC(F)(F)C5)CC4)cc3c2C(C)C)cn2ncnc12 (stereo not drawn) [Example 34]
13 | 6.91 | 4.75 | 7.26 | COc1cc(-c2[nH]c3ccc(C4CCC(N5CCCC(F)(F)C5)CC4)cc3c2C(C)C)cn2ncnc12 (stereo not drawn) [Example 35]
14 | 8.92 | 5.60 | 9.12 | COc1cc(-c2[nH]c3ccc(C4CCC(N5C[C@@H](C)O[C@@H](C)C5)CC4)cc3c2C(C)C)cn2ncnc12 (stereo partly drawn) [Example 40]
15 | 8.11 | 5.64 | 8.40 | COc1cc(-c2[nH]c3ccc(C4CCC(N5CC(C)OC(C)C5)CC4)cc3c2C(C)C)cn2ncnc12 (stereo not drawn) [Example 41]
16 | 9.00 | 5.58 | 9.70 | COc1cc(-c2[nH]c3ccc(C4CCC(NC5(C)CC5)CC4)cc3c2C(C)C)cn2ncnc12 (stereo not drawn) [Example 42]
17 | 7.89 | 5.36 | 9.00 | COc1cc(-c2[nH]c3ccc(C4CCC(NC5(C)CC5)CC4)cc3c2C(C)C)cn2ncnc12 (stereo not drawn) [Example 43]
18 | 9.40 | 5.73 | 9.26 | Cc1c(-c2[nH]c3ccc(C4CCC(NC5(C)COC5)CC4)cc3c2C(C)C)cn2ncnc2c1C (stereo not drawn) [Example 48]
19 | 8.48 | 6.21 | 8.70 | Cc1cc(-c2[nH]c3ccc(C4CCC(N5CCOCC5)CC4)cc3c2C(C)C)cc(C)n1 (stereo not drawn) [Example 54]
20 | 7.82 | 6.32 | 8.10 | Cc1cc(-c2[nH]c3ccc(C4CCC(N5CCOCC5)CC4)cc3c2C(C)C)cc(C)n1 (stereo not drawn) [Example 55]
21 | 8.09 | 5.22 | 9.00 | Cc1cc(-c2[nH]c3ccc(C4CCC(NC5COC5)CC4)cc3c2C(C)C)cn2ncnc12 (stereo not drawn) [Example 57]
22 | 9.06 | 5.50 | 9.85 | Cc1cc(-c2[nH]c3ccc(C4CCC(NC5COC5)CC4)cc3c2C(C)C)cn2ncnc12 (stereo not drawn) [Example 59]
23 | 8.74 | 6.30 | 9.59 | Cc1cc(-c2[nH]c3ccc(C4CCC(NC5COC5)CC4)cc3c2C(C)C)cc(C)n1 (stereo not drawn) [Example 60]
24 | 8.41 | 6.70 | 9.00 | Cc1cc(-c2[nH]c3ccc(C4CCC(NC5COC5)CC4)cc3c2C(C)C)cc(C)n1 (stereo not drawn) [Example 61]
25 | 8.20 | 5.74 | 9.01 | CCN(C)C1CCC(c2ccc3[nH]c(-c4cc(C)c5ncnn5c4)c(C(C)C)c3c2)CC1 (stereo not drawn) [Example 62]
26 | 8.23 | 5.23 | 9.09 | CCN(C)C1CCC(c2ccc3[nH]c(-c4cc(C)c5ncnn5c4)c(C(C)C)c3c2)CC1 (stereo not drawn) [Example 63]
27 | 9.06 | 5.52 | 9.82 | COc1cc(-c2[nH]c3ccc(C4CCC(NC5COC5)CC4)cc3c2C(C)C)cn2ncnc12 (stereo not drawn) [Example 64]

From patent US11878975B2, “Substituted indole compounds useful as TLR inhibitors” (BRISTOL-MYERS SQUIBB COMPANY, priority 2017, dated 2024)
